Assay results as given in patent publication US4638070A, “Heterocyclic amino-alcohol derivatives” (Continental Pharma, priority 1980, dated 1987).

Columns and labels:
[1] = test system: guinea-pig ileum (barium chloride contractions); test: Antispasmodic activity in vitro, contractions caused by barium chloride; conditions: added 15 minutes before spasm-producing agent
Protocol: (§1) (4) The antispasmodic activity was measured in vitro, on guinea-pig ileum, the contractions of which were caused by histammne (Hist.), acetylcholine (Achol) or barium chloride (BaCl2). The tested products were added to perfusion bath 15 minutes before the spasm-producing agents.
(§2) The dose is given in micograms (μg) per ml of bath causing complete spasm inhibition.

[2] = test system: femoral artery; test: Vasodilator activity, femoral artery (technique of perfused paw); assay type: in vivo; design: key: O: no action; +: slight activity; ++: effect equal to half the effect of papaverine; +++: effect equal to that of papaverine; ++++: effect higher than that of papaverine; conditions: intra-arterial, 30 mg/kg, anaesthetized dog, vs papaverine at same dose
Protocol: (3) The vasodilator activity was measured at the level of femoral artery on anaesthetized dog (technique of perfused paw). The tested substances were given intra-arterially at the rate of 30 mg/kg. Results are expressed with respect to papaverine tested at the same dose.
++: effect equal to half the effect of papaverine.
+++: effect equal to that of papaverine.
++++: effect higher than that of papaverine.

[3] = Acute toxicity, oral, LD50 (Litchfield and Wilcoxon); conditions: mouse, in vivo, fasted male mice, confidence limits p=95% in brackets
Protocol: (1) The acute toxicity was determined on fasted male mice. The tested substances were orally administered and LD50 values (lethal dose for 50% of animals) were calculated according to the method of Litchfield and Wilcoxon (J. Pharmacol. exp. Ther. 96, 94-113, 1949). These LD50 values are given in mg/kg and also, when possible, with their confidence limits for p=95%.

[4] = test system: guinea-pig ileum (acetylcholine contractions); test: Antispasmodic activity in vitro, contractions caused by acetylcholine; conditions: added 15 minutes before spasm-producing agent
Protocol: as §1, §2

[5] = test system: guinea-pig ileum (histamine contractions); test: Antispasmodic activity in vitro, contractions caused by histamine; conditions: added 15 minutes before spasm-producing agent
Protocol: as §1, §2

[6] = test system: unanaesthetized, hypertension-suffering rat; test: Antihypertensive activity (systolic arterial pressure), oral; assay type: in vivo; conditions: 60 mg/kg, hypertensive rat, 3 hours
Method in brief: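 Conscious hypertensive rats given compound orally at 60 mg/kg; systolic arterial pressure measured every 30 min for 2 h pre-dose and 3 h post-dose. Scored O (no fall), + (<10 mm Hg), ++ (10–20 mm Hg), +++ (>20 mm Hg).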

Row | Structure (SMILES) | ANTISPASMODIC ACTIVITY BaCl2 (dose causing complete spasm inhibition) [1] | VASODILATOR ACTIVITY [2] | LD50 [3] | ANTISPASMODIC ACTIVITY ACHOL (dose causing complete spasm inhibition) [4] | ANTISPASMODIC ACTIVITY HIST. (dose causing complete spasm inhibition) [5] | ANTIHYPERTENSIVE ACTIVITY [6]
1 | CCCCCCCCNC(C)C(O)c1ccc2c(c1)CCC(C)S2 (stereo not drawn) [No 4] | > 16.7 μg per ml | +++ | 4000 mg/kg |  |  | 
2 | CC(NCCCCCc1ccccc1)C(O)c1ccc2c(c1)CCCS2 (stereo not drawn) [No 8] | 0.8 μg per ml | ++++ |  | 1.7 μg per ml | 0.8 μg per ml | 
3 | CC1CCc2cc(C(O)C(C)NCCc3ccccc3)ccc2S1 (stereo not drawn) [No 9] | 0.8 μg per ml | +++ | ~2750 mg/kg | 3.3 μg per ml | 3.3 μg per ml | 
4 | CCCCCCCCNC(C)C(O)c1ccc2c(c1)CCCCS2 (stereo not drawn) [No 11] | 3.3 μg per ml | +++ | 3300 mg/kg | 1.7 μg per ml | 0.8 μg per ml | 
5 | CC(NCCc1ccccc1)C(O)c1ccc2c(c1)CCCS2 (stereo not drawn) [No 13] | 3.3 μg per ml | ++ |  | 0.8 μg per ml | 3.3 μg per ml | 
6 | CC(NCCc1ccccc1)C(O)c1ccc2c(c1)CCCCS2 (stereo not drawn) [No 14] | 1.7 μg per ml | +++ |  | 3.3 μg per ml | 1.7 μg per ml | 
7 | CC(NCC(c1ccccc1)c1ccccc1)C(O)c1ccc2c(c1)CCCS2 (stereo not drawn) [No 21] | 1.7 μg per ml | +++ |  | 0.33 μg per ml | 0.33 μg per ml | 
8 | COc1ccc(CCNC(C)C(O)c2ccc3c(c2)CCCS3)cc1OC (stereo not drawn) [No 22] | 8.3 μg per ml |  | 3700 mg/kg | 8.3 μg per ml | 3.3 μg per ml | 
9 | CC(NCCCCSc1ccccc1)C(O)c1ccc2c(c1)CCCS2 (stereo not drawn) [No 25] | 0.8 μg per ml |  | > 4000 mg/kg | 0.8 μg per ml | 0.8 μg per ml | 
10 | CC(NC1CCCCCCC1)C(O)c1ccc2c(c1)CCCS2 (stereo not drawn) [No 27] | 1.7 μg per ml | ++ |  | 1.7 μg per ml | 1.7 μg per ml | 
11 | CCC(=O)c1ccc(OCCNC(C)C(O)c2ccc3c(c2)CCS3)cc1 (stereo not drawn) [No 108] |  | +++ | > 4000 mg/kg | 3.3 μg per ml | 0.8 μg per ml | ++ (reduction of 10 to 20 mm Hg)
12 | CC1CSc2ccc(C(O)C(C)NCCCCc3ccccc3)cc21 (stereo not drawn) [No 109] |  | +++ | ~2750 mg/kg | 0.8 μg per ml | 0.17 μg per ml | +++ (reduction higher than 20 mm Hg)
13 | CC(NCCCC(=O)c1ccc(F)cc1)C(O)c1ccc2c(c1)CCS2 (stereo not drawn) [No 111] |  | +++ | ~700 mg/kg | 0.8 μg per ml | 0.3 μg per ml | ++ (reduction of 10 to 20 mm Hg)
14 | CCC(NCCCCc1ccccc1)C(O)c1ccc2c(c1)CCS2 (stereo not drawn) [No 115] |  | +++ | ~2500 mg/kg | 1.7 μg per ml | 0.8 μg per ml | +++ (reduction higher than 20 mm Hg)
15 | CCC(=O)c1ccc(OCCNC(C)C(O)c2ccc3c(c2)CC(C)S3)cc1 (stereo not drawn) [No 116] |  | ++ | > 4000 mg/kg | 3.3 μg per ml | 0.17 μg per ml | ++ (reduction of 10 to 20 mm Hg)
16 | CC(C)C(=O)OC(c1ccc2c(c1)CCS2)C(C)NCCCCc1ccccc1 (stereo not drawn) [No 117] |  | ++++ | 2200 mg/kg | 0.8 μg per ml | 1.7 μg per ml | +++ (reduction higher than 20 mm Hg)
17 | CCC(=O)OC(c1ccc2c(c1)CCS2)C(C)NCCCCc1ccccc1 (stereo not drawn) [No 118] |  | ++ | 2020 mg/kg | 1.7 μg per ml | 0.8 μg per ml | +++ (reduction higher than 20 mm Hg)
18 | CC(NCCCCc1ccccc1)C(O)c1ccc2c(c1)CCC2 (stereo not drawn) [No 163] |  | ++ | 800 mg/kg | 0.8 μg per ml | 1.7 μg per ml | +++ (reduction higher than 20 mm Hg)
19 | CCCCCCCCNC(C)C(O)c1ccc2c(c1)CCC2 (stereo not drawn) [No 164] |  | +++ | 1750 mg/kg | 0.8 μg per ml | 0.8 μg per ml | ++ (reduction of 10 to 20 mm Hg)
20 | CC(NCCCc1ccccc1)C(O)c1ccc2c(c1)CCC2 (stereo not drawn) [No 165] |  | +++ | 3800 mg/kg | 1.7 μg per ml | 1.7 μg per ml | +++ (reduction higher than 20 mm Hg)
21 | CC(NCCCCc1ccc(Cl)cc1)C(O)c1ccc2c(c1)CCC2 (stereo not drawn) [No 167] |  | +++ | ~270 mg/kg | 0.8 μg per ml | 0.8 μg per ml | +++ (reduction higher than 20 mm Hg)
22 | CC(NCCOc1ccccc1)C(O)c1ccc2c(c1)CCC2 (stereo not drawn) [No 168] |  | ++++ | > 2000 mg/kg | 3.3 μg per ml | 3.3 μg per ml | +++ (reduction higher than 20 mm Hg)
23 | CC(NCCOc1ccc(Cl)cc1)C(O)c1ccc2c(c1)CCC2 (stereo not drawn) [No 169] |  | +++ | > 4000 mg/kg | 0.8 μg per ml | 3.3 μg per ml | +++ (reduction higher than 20 mm Hg)
24 | CC(C(O)c1ccc2c(c1)CCC2)N1CCC(Cc2ccccc2)CC1 (stereo not drawn) [No 172] |  | ++++ | 1900 mg/kg | 1.7 μg per ml | 0.08 μg per ml | +++ (reduction higher than 20 mm Hg)
